Assay results published in patent US6787125B1, “Compound screening method” (priority 1999, dated 2004).
Structures can show the parent of a compound that is named as a salt. Where two headings read alike, the source gives them in different places.

Tests used:
C. elegans = type: in vivo
Source text: Nematode worms that are placed in liquid culture will move in such a way that they maintain a more or less even (or homogeneous) distribution throughout the culture. Nematode worms that are defective in movement will precipitate to the bottom in liquid culture.
Advanced multi-well plate readers are able to detect sub-regions of the wells of multi-well plates. By using these plate readers it is possible to take measurements in selected areas of the surface of the wells of the multi-well plates. If the area of measurement is centralized, so that only the middle of the well is measured, a difference in nematode autofluorescence (fluorescence which occurs in the absence of any external marker molecule) or optical density can be observed in the wells containing nematodes that move normally as compared to wells containing nematodes that are defective for movement. For the wells containing the nematodes that move normally, a low level of autofluorescence or optical density will be observed, whilst a high level of autofluorescence or optical density can be observed in the wells that contain the nematodes that are defective in movement. Optical density is measured using a variation of the platelet aggregation assay, which is well known in the art. Using the MRX revelation device from Dynex (USA), optical density can be measured at multiple points per well, showing the precipitation pattern of the nematodes.
In an adaptation of the movement assay, autofluorescence or optical density measurements can be taken in two areas of the surface of the well, one measurement in the centre of the well, and on measurement on the edge of the well. Comparing the two measurements gives analogous results as in the case if only the centre of the well is measured but the additional measurement of the edge of the well results in an extra control and somewhat more distinct results.

C. elegans pharynx = assay: Pharynx pumping assay (calcein-AM), strain not specified: dilution series, insecticides, Tocris library; type: in vivo; conditions: for effect on pharynx pumping rate, dose-response curve: concentration range from less than 1 μM up to 100 μM
Method: The pumping rate of the pharynx is measured indirectly by adding a marker molecule precursor such as calcein-AM to the medium and measuring the formation of marker dye in the C. elegans gut. Calcein-AM is cleaved by esterases present in the C. elegans gut to release calcein, which is a fluorescent molecule. […] Therefore by measuring the accumulation of calcein in the nematode gut, detectable by fluorescence, it is possible to determine the pumping rate of the pharynx.
To perform the pharynx pumping screen with calcein-AM, a concentration of between 1 and 100 μM calcein-AM is added into the medium. Preferably 5 to 10 μM calcein-AM is used. Fluorescence is measured using a multi-well plate reader (Victor2, Wallac Oy, Finland) with following settings: Ex/Em=485/530.
To determine the sensitivity of the pharynx pumping assay, dilution series were made for some chemical substances. These include the chemicals clomipramine, tamoxifen, BP554, pimazide and thapsigargin. A concentration range was made from less than 1 μM up to 100 μM, and the pumping assay was repeated as described in previous examples.

Question: With “7-(Dimethylcarbamoyloxy)-6-phenylpyrrolo” as the compound, how does the “movement assay reading, first number column (no head printed)” value (C. elegans; Table 10 c3) read?
Answer: The value was 14278.

Question: And the “movement assay reading, second number column (no head printed)” value (C. elegans; Table 10 c4)?
Answer: The value was 32900.

Question: What about the “hit call: detectable change in the movement behaviour” value (shortened to “hit call: detectable change”) (C. elegans; Table 10 c7) of the same compound?
Answer: The value was “HIT”.

Question: What does the source list for `NC(CCCCCC(=O)O)C(=O)O` (racemic) [DL-2-Aminosuberic acid]?
Answer: hit call: detectable change in the movement behaviour (C. elegans; in vivo): HIT; movement assay reading, first number column (no head printed) (C. elegans; in vivo): 17141; movement assay reading, second number column (no head printed) (C. elegans; in vivo): 33518

Question: Which “effect on pumping rate of the pharynx” value (C. elegans pharynx; both in wild-type worms and in constitutive pumping worms) does the source give for `c1ccc(-c2cnc(-c3ccccc3)o2)cc1` [2,5-diphenyloxazole] here?
Answer: The value was “inhibitor of the pumping rate of the pharynx”.

Question: `N[C@H](C(=O)O)[C@H](CC(=O)O)c1ccc(Cl)cc1` [(2S,3R)-Chloropheg] was tested. Which “movement assay reading, first number column (no head printed)” value (C. elegans; Table 10 c3) did it give?
Answer: The value was 21514.

Question: What about the “movement assay reading, second number column (no head printed)” value (C. elegans; Table 10 c4) of the same compound?
Answer: The value was 48736.

Question: What about the “hit call: detectable change” value (C. elegans; Table 10 c7) of the same compound?
Answer: Its value is “HIT”.

Question: Which results are given for `CC(=O)O[C@H](CC(=O)[O-])C[N+](C)(C)C` [(n)-Acetylcarnitine]?
Answer: movement assay reading, first number column (no head printed) (C. elegans; Table 10 c3): 23457; movement assay reading, second number column (no head printed) (C. elegans; Table 10 c4): 44156; hit call: detectable change in the movement behaviour (C. elegans; Table 10 c7): HIT

Question: For `CC#CCOC(=O)C1=CCCN(C)C1` [Arecaidine but-2-ynyl ester], which “movement assay reading, first number column (no head printed)” value (C. elegans; Table 10 c3) is on record?
Answer: Its value is 20002.

Question: What about the “movement assay reading, second number column (no head printed)” value (C. elegans; Table 10 c4) of the same compound?
Answer: Its value is 37675.

Question: And the “hit call: detectable change” value (C. elegans; Table 10 c7)?
Answer: Its value is “HIT”.

Question: With `c1ccc(N2CCN(CCCOc3ccc4c(c3)OCO4)CC2)cc1` [BP554] as the compound, how does the “effect on pharynx pumping rate, dose-response curve” value (C. elegans pharynx) read?
Answer: Its value is “inhibitors”.

Question: For `CC(C)(Oc1ccc(Cl)cc1)C(=O)O` [Clofibric acid], which “movement assay reading, first number column (no head printed)” value (C. elegans; Table 10 c3) is on record?
Answer: The value was 22933.

Question: What about the “movement assay reading, second number column (no head printed)” value (C. elegans; Table 10 c4) of the same compound?
Answer: The value was 40916.

Question: And the “hit call: detectable change” value (C. elegans; Table 10 c7)?
Answer: The value was “HIT”.

Question: How did the “effect on pharynx pumping rate, dose-response curve” value (C. elegans pharynx) turn out when `CN(C)CCCN1c2ccccc2CCc2ccc(Cl)cc21` [Clomipramine] was run?
Answer: Its value is “enhancer”.

Question: What does the source list for `NC1(C(=O)O)CCCC1` [Cycloleucine]?
Answer: movement assay reading, first number column (no head printed) (C. elegans; Table 10 c3): 19234; movement assay reading, second number column (no head printed) (C. elegans; Table 10 c4): 36560; hit call: detectable change in the movement behaviour (C. elegans; Table 10 c7): HIT

Question: Which results are given for `NC(CCCP(=O)(O)O)C(=O)O` [D-AP5]?
Answer: movement assay reading, first number column (no head printed) (C. elegans; Table 10 c3): 19717; movement assay reading, second number column (no head printed) (C. elegans; Table 10 c4): 41697; hit call: detectable change in the movement behaviour (C. elegans; Table 10 c7): HIT

Question: For `C[S+](C)[O-]` [DMSO], which “toxic effect in pharynx pumping dose-response curve” value (C. elegans pharynx; solvent, at higher concentrations (FIG. 5)) is on record?
Answer: The value was “toxic effect”.

Question: How did the “movement assay reading, first number column (no head printed)” value (C. elegans; Table 10 c3) turn out when `CCN(CC)CCOc1ccc(Cc2ccccc2)cc1` [DPPE] was run?
Answer: Its value is 20365.

Question: What about the “movement assay reading, second number column (no head printed)” value (C. elegans; Table 10 c4) of the same compound?
Answer: The value was 43629.

Question: What about the “hit call: detectable change” value (C. elegans; Table 10 c7) of the same compound?
Answer: Its value is “HIT”.

Question: For `ClC1=C(Cl)[C@]2(Cl)[C@@H]3[C@@H]4C[C@@H]([C@H]5O[C@@H]45)[C@@H]3[C@@]1(Cl)C2(Cl)Cl` [Dieldrin], which “effect of compounds of known insecticidal activity on the pharynx pumping rate” value (C. elegans pharynx; FIGS. 18 to 21) is on record?
Answer: Its value is “reduction in the pharynx pumping rate”.

Question: For `CN(C)CCC=C1c2ccccc2COc2ccccc21` [Doxepin], which “effect on pharynx pumping” value (C. elegans pharynx; general statement) is on record?
Answer: Its value is “enhancer of pharynx pumping”.

Question: Which results are given for `CN(C)CCCn1cc(C2=C(c3c[nH]c4ccccc34)C(=O)NC2=O)c2ccccc21` [GF 109203X]?
Answer: movement assay reading, first number column (no head printed) (C. elegans; Table 10 c3): 15685; movement assay reading, second number column (no head printed) (C. elegans; Table 10 c4): 34448; hit call: detectable change in the movement behaviour (C. elegans; Table 10 c7): HIT

Question: How did the “movement assay reading, first number column (no head printed)” value (C. elegans; Table 10 c3) turn out when `COc1ccc(CNC(=O)/C=C/c2ccc3[nH]cc(CCN(C)C)c3c2)cc1` [GR 46611] was run?
Answer: Its value is 15815.

Question: What about the “movement assay reading, second number column (no head printed)” value (C. elegans; Table 10 c4) of the same compound?
Answer: The value was 33199.

Question: What about the “hit call: detectable change” value (C. elegans; Table 10 c7) of the same compound?
Answer: The value was “HIT”.

Question: Which “movement assay reading, first number column (no head printed)” value (C. elegans; Table 10 c3) does the source give for `CCCCCCC(C)(C)c1cc(O)c2c(c1)OC(C)(C)[C@@H]1CC=C(CO)C[C@@H]21` [HU 210] here?
Answer: Its value is 15481.

Question: What about the “movement assay reading, second number column (no head printed)” value (C. elegans; Table 10 c4) of the same compound?
Answer: Its value is 33514.

Question: What about the “hit call: detectable change” value (C. elegans; Table 10 c7) of the same compound?
Answer: Its value is “HIT”.

Question: What does the source list for `Cc1nccc2c1[nH]c1ccccc12` [Harmane HCl]?
Answer: movement assay reading, first number column (no head printed) (C. elegans; Table 10 c3): 1843115; movement assay reading, second number column (no head printed) (C. elegans; Table 10 c4): 555251

Question: `O=C(O)c1cc2ccccc2[nH]1` [Indole-2-carboxylic acid] was tested. Which “movement assay reading, first number column (no head printed)” value (C. elegans; Table 10 c3) did it give?
Answer: Its value is 19362.

Question: What about the “movement assay reading, second number column (no head printed)” value (C. elegans; Table 10 c4) of the same compound?
Answer: The value was 43403.

Question: What about the “hit call: detectable change” value (C. elegans; Table 10 c7) of the same compound?
Answer: The value was “HIT”.
